Structures can show the parent of a compound that is named as a salt. Where two headings read alike, the source gives them in different places.
Columns and labels:
[1] = test system: experimental myocardial infarction; assay: Effects against an experimental myocardial infarction (anterior descending artery ligation, necrotic area by planimetry); type: in vivo, rabbit; conditions: for inhibition in vivo at 200 mg/kg: read-out: Inhibition rates (%), T = 200 mg/kg, i.v.
Description: The chest wall of each animal was incised under artificial respiration, and the anterior descending artery was ligated (about 7 mm downward of the starting portion). 24 Hours later, the heart was taken out, and a myocardium between the cadiac apex and the ligated portion was sliced to have a thickness of 2 mm and stained to distinguish the infarction-affected portions by a phosphorylase reaction, whereupon the area of the necrotic portion was calculated by planimetory. Medicinal substances were administered 5 minutes prior to the ligation (T/2 mg/kg, i.v.), continuously from immediately after the ligation to one hour later (T/4 mg/kg/hr, by constant dropping), 2 hours after the ligation (T/8 mg/kg, i.v.) and 3 hours after the ligation (T/8 mg/kg, i.v.). Each medicinal substance was administered in the form of a physiological sodium chloride solution. Where the substance was hardly soluble, it was used in the form of a salt. To a control group was administered only a physiological sodium chloride solution. (T means a total amount of administration.)

[2] = test system: mice; assay: in vivo; conditions: i.v., tail of mice
Description: (§1) Medicinal substances were administered intravenously from the tails of the mice.

[3] = in vivo; conditions: mouse, in vivo, iv, tail of mice
Description: as §1

[4] = Oryctolagus cuniculus, iv, 24 h, vs control 14.9 ± 0.7
[5] = T = 200 mg/kg, i.v., 8 cases, control 14.9 ± 0.7
[6] = Oryctolagus cuniculus, iv, 24 h, T = 40 mg/kg, i.v., vs control 14.1 ± 1.0, read-out: Inhibition rates (%)
[7] = T = 40 mg/kg, i.v., 8 cases, control 14.1 ± 1.0
[8] = Oryctolagus cuniculus, iv, 24 h, vs control 14.1 ± 1.0
[9] = T = 200 mg/kg, i.v., 8 cases, control 14.1 ± 1.0

**Q.** For `CC(C)NCC(O)COc1cccc2ccccc12` (stereo not drawn) [Propranolol hydrochloride, reference compound], which inhibition in vivo at 1 mg/kg ([1]; Oryctolagus cuniculus, iv, 24 h, T = 1 mg/kg, i.v., vs control 14.6 ± 1.0, read-out: Inhibition rates (%)) is on record?
**A.** 6.2%

**Q.** What about the inhibition in vivo at 2 mg/kg ([1]; Oryctolagus cuniculus, iv, 24 h, T = 2 mg/kg, i.v., vs control 14.6 ± 1.0, read-out: Inhibition rates (%)) of the same compound?
**A.** 23.3%

**Q.** What about the inhibition in vivo at 4 mg/kg ([1]; Oryctolagus cuniculus, iv, 24 h, T = 4 mg/kg, i.v., vs control 14.6 ± 1.0, read-out: Inhibition rates (%)) of the same compound?
**A.** 26.7%

**Q.** What about the “Necrotic area (mean ± S.E. %)” value ([1]; T = 1 mg/kg, i.v., 8 cases, control 14.6 ± 1.0) of the same compound?
**A.** 13.7 ± 1.1%

**Q.** With `CC(C)C[C@H](NC(=O)[C@@H]1O[C@H]1C(=O)[O-])C(=O)N1CCN(Cc2ccccc2)CC1.[Na+]` as the compound, how does the inhibition in vivo at 200 mg/kg [1, 4] read?
**A.** 20.1%

**Q.** What about the “Necrotic area (mean ± S.E. %)” value [1, 5] of the same compound?
**A.** 11.9 ± 0.6%

**Q.** What about the “MLD (in column LD50 mice)” value [2] of the same compound?
**A.** > 1125 mg/kg

**Q.** Which results are given for `COc1ccc(CCN(C)CCCC(C#N)(c2ccc(OC)c(OC)c2)C(C)C)cc1OC` (racemic) [Verapanil hydrochloride, reference compound]?
**A.** inhibition in vivo at 2 mg/kg ([1]; Oryctolagus cuniculus, iv, 24 h, read-out: Inhibition rates (%), T = 2 mg/kg, i.v., vs control 14.6 ± 1.0): 24.7%; Necrotic area (mean ± S.E. %) ([1]; T = 2 mg/kg, i.v., 7 cases (propranolol), 10 cases (verapanil), control 14.6 ± 1.0): 11.0 ± 1.3%

**Q.** What does the source list for `CCN1CCN(C(=O)[C@H](CC(C)C)NC(=O)[C@@H]2O[C@H]2C(=O)[O-])CC1.[Na+]`?
**A.** inhibition in vivo at 200 mg/kg [1, 4]: 20.8%; Necrotic area (mean ± S.E. %) [1, 5]: 11.8 ± 0.9%; MLD (in column LD50 mice) [2]: > 1125 mg/kg

**Q.** With `CCOC(=O)C1OC1C(=O)N[C@@H](CC(C)C)C(=O)N1CCN(Cc2ccc(OC)c(OC)c2OC)CC1` (stereo partly drawn) [Compound 10, Ethyl trans-3-[(s)-3-methyl-1-{4-(2,3,4-trimethoxyphenylmethyl)piperazine-1-ylcarbonyl}butylcarbamoyl]oxirane-2-carboxylate 1/2 sulfate] as the compound, how does the inhibition in vivo at 40 mg/kg [1, 6] read?
**A.** 25.5%

**Q.** What about the “Necrotic area (mean ± S.E. %)” value [1, 7] of the same compound?
**A.** 10.5 ± 1.1%

**Q.** With `CCOC(=O)[C@H]1O[C@@H]1C(=O)N[C@@H](CC(C)C)C(=O)N1CCN(Cc2ccc(OC)c(OC)c2OC)CC1` [Compound 12, Ethyl (2S,3S)-3-[(s)-3-methyl-1-{4-(2,3,4-trimethoxyphenylmethyl)piperazine-1-ylcarbonyl}butylcarbamoyl]oxirane-2-carboxylate 1/2 sulfate] as the compound, how does the inhibition in vivo at 40 mg/kg [1, 6] read?
**A.** 19.9%

**Q.** What about the “Necrotic area (mean ± S.E. %)” value [1, 7] of the same compound?
**A.** 11.3 ± 1.2%

**Q.** What about the LD50 [3] of the same compound?
**A.** 345 mg/kg

**Q.** With `COc1ccc(CN2CCN(C(=O)[C@H](CC(C)C)NC(=O)[C@@H]3O[C@H]3C(=O)[O-])CC2)c(OC)c1OC.[Na+]` [listing 1 of 2 here] as the compound, how does the inhibition in vivo at 200 mg/kg [1, 8] read?
**A.** 30.5%

**Q.** What about the “Necrotic area (mean ± S.E. %)” value [1, 9] of the same compound?
**A.** 9.8 ± 0.9%

**Q.** With `CC(C)C[C@H](NC(=O)[C@@H]1O[C@H]1C(=O)[O-])C(=O)N1CCN(c2ncccn2)CC1.[Na+]` [listing 1 of 2 here] as the compound, how does the inhibition in vivo at 200 mg/kg [1, 4] read?
**A.** 25.5%

**Q.** And the “Necrotic area (mean ± S.E. %)” value [1, 5]?
**A.** 11.1 ± 0.8%

**Q.** And the “MLD (in column LD50 mice)” value [2]?
**A.** > 1125 mg/kg

**Q.** For `CCOC(=O)[C@@H]1O[C@H]1C(=O)N[C@@H](CC(C)C)C(=O)N1CCN(Cc2ccc(OC)c(OC)c2OC)CC1` [Compound 11, Ethyl (2R,3R)-3-[(s)-3-methyl-1-{4-(2,3,4-trimethoxyphenylmethyl)piperazine-1-ylcarbonyl}butylcarbamoyl]oxirane-2-carboxylate 1/2 sulfate], which inhibition in vivo at 40 mg/kg [1, 6] is on record?
**A.** 29.1%

**Q.** What about the “Necrotic area (mean ± S.E. %)” value [1, 7] of the same compound?
**A.** 10.0 ± 1.0%

**Q.** And the LD50 [3]?
**A.** 374 mg/kg

**Q.** For `COc1ccc(CN2CCN(C(=O)[C@H](CC(C)C)NC(=O)[C@@H]3O[C@H]3C(=O)[O-])CC2)cc1.[Na+]`, which inhibition in vivo at 200 mg/kg [1, 4] is on record?
**A.** 20.1%

**Q.** What about the “Necrotic area (mean ± S.E. %)” value [1, 5] of the same compound?
**A.** 11.9 ± 0.8%

**Q.** And the “MLD (in column LD50 mice)” value [2]?
**A.** > 1125 mg/kg

**Q.** For `CC(C)C[C@H](NC(=O)[C@@H]1O[C@H]1C(=O)[O-])C(=O)N1CCN(c2ncccn2)CC1.[Na+]` [listing 2 of 2 here], which inhibition in vivo at 200 mg/kg [1, 8] is on record?
**A.** 23%

**Q.** What about the “Necrotic area (mean ± S.E. %)” value [1, 9] of the same compound?
**A.** 11.1 ± 0.7%

**Q.** For `CC(C)C[C@H](NC(=O)[C@H]1O[C@@H]1C(=O)[O-])C(=O)N1CCN(c2ncccn2)CC1.[Na+]`, which inhibition in vivo at 200 mg/kg [1, 8] is on record?
**A.** 26%

**Q.** And the “Necrotic area (mean ± S.E. %)” value [1, 9]?
**A.** 10.7 ± 0.4%

**Q.** What about the “MLD (in column LD50 mice)” value [2] of the same compound?
**A.** > 1125 mg/kg

**Q.** What does the source list for `COc1ccc(CN2CCN(C(=O)[C@H](CC(C)C)NC(=O)C3OC3C(=O)OCC(C)C)CC2)c(OC)c1OC` (stereo partly drawn) [Compound 9, Isobutyl trans-3-[(s)-3-methyl-1-{4-(2,3,4-trimethoxyphenylmethyl)piperazine-1-ylcarbonyl}butylcarbamoyl]oxirane-2-carboxylate 1/2 sulfate]?
**A.** inhibition in vivo at 40 mg/kg [1, 6]: 18.4%; Necrotic area (mean ± S.E. %) [1, 7]: 11.5 ± 1.2%; LD50 [3]: 440 mg/kg

**Q.** Which results are given for `COc1ccc(CN2CCN(C(=O)[C@H](CC(C)C)NC(=O)[C@H]3O[C@@H]3C(=O)[O-])CC2)c(OC)c1OC.[Na+]`?
**A.** inhibition in vivo at 200 mg/kg [1, 8]: 24.1%; Necrotic area (mean ± S.E. %) [1, 9]: 10.7 ± 0.9%; MLD (in column LD50 mice) [2]: > 1125 mg/kg

**Q.** With `CC(C)C[C@H](NC(=O)[C@@H]1O[C@H]1C(=O)[O-])C(=O)N1CCN(CC=Cc2ccccc2)CC1.[Na+]` as the compound, how does the inhibition in vivo at 100 mg/kg ([1]; Oryctolagus cuniculus, iv, 24 h, read-out: Inhibition rates (%), T = 100 mg/kg, i.v., vs control 14.9 ± 0.7) read?
**A.** 25.5%

**Q.** What about the “Necrotic area (mean ± S.E. %)” value ([1]; T = 100 mg/kg, i.v., 8 cases, control 14.9 ± 0.7) of the same compound?
**A.** 11.1 ± 0.6%

**Q.** What about the “MLD (in column LD50 mice)” value [2] of the same compound?
**A.** 1000 to 1125 mg/kg

**Q.** For `CC(C)C[C@H](NC(=O)C1OC1C(=O)O)C(=O)N1CCN(C(c2ccccc2)c2ccccc2)CC1` (stereo partly drawn) [Compound 1], which inhibition in vivo at 80 mg/kg ([1]; Oryctolagus cuniculus, iv, 24 h, T = 80 mg/kg, i.v., vs control 14.9 ± 0.7, read-out: Inhibition rates (%)) is on record?
**A.** 24.8%

**Q.** And the “Necrotic area (mean ± S.E. %)” value ([1]; T = 80 mg/kg, i.v., 8 cases, control 14.9 ± 0.7)?
**A.** 11.2 ± 0.5%

**Q.** What about the LD50 [3] of the same compound?
**A.** 174 mg/kg

**Q.** Which results are given for `CC(C)C[C@H](NC(=O)[C@@H]1O[C@H]1C(=O)[O-])C(=O)N1CCN(c2ccccn2)CC1.[Na+]`?
**A.** inhibition in vivo at 200 mg/kg [1, 4]: 22.1%; Necrotic area (mean ± S.E. %) [1, 5]: 11.6 ± 0.7%; MLD (in column LD50 mice) [2]: > 1125 mg/kg

**Q.** For `COc1ccc(CN2CCN(C(=O)[C@H](CC(C)C)NC(=O)[C@@H]3O[C@H]3C(=O)[O-])CC2)c(OC)c1OC.[Na+]` [listing 2 of 2 here], which inhibition in vivo at 200 mg/kg [1, 4] is on record?
**A.** 29.5%

**Q.** And the “Necrotic area (mean ± S.E. %)” value [1, 5]?
**A.** 10.5 ± 0.9%

**Q.** And the “MLD (in column LD50 mice)” value [2]?
**A.** > 1125 mg/kg

Reference: patent US4507297A, “Piperazine derivatives and a medicine containing the same” (priority 1981, dated 1985)
